Experimental data published in the supplement of paper PMC11208160.

Assay: recombinant barcode read abundance after kanamycin selection (control-corrected) (log10(CPM+1)); higher = more efficient recombination; sequences stand for … in AGTGCAGAGAAAATCGGCCAGTTTTCTCTGCCTGCAGTCCGCATGCCGT…AGATTTATGCAGCGGACTGCCTTTCTCCCAAAGTGATAAACCGGACAGTATCATGGACCGGTTTTCCCGGTAATCCGTATTTGCAAGGTTGGTTTCACT; site = the 11-nt target
Experimental: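 Pooled E. coli target-specificity screen for the IS621 bridge recombinase. Each library plasmid pairs an 11-nt target (CT core) with a bridge RNA whose target-binding loop (9-nt LTG + 4-nt RTG) is reprogrammed; the rest of the 177-nt WT IS621 bridge RNA scaffold is fixed. The plasmid is co-electroporated with a WT donor plasmid; recombinase is induced with 0.1 mM IPTG and recombinants are selected on kanamycin. Recombinant barcodes are sequenced, converted to CPM, averaged over two biological replicates and corrected by the unselected control CPM. Molecule = full bridge RNA written as DNA: LTG = specificity nt 1-9, RTG = reverse complement of specificity nt 8-11, in the WT scaffold.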
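Note: IS621 recombinase and bridge RNA in Escherichia coli cells.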

Sequence	recombinant barcode read abundance (log10)
AATTGGACTTGGGTTCTAACCTGTTGCTT (site AATTGGACTAA)	0.355
AATTGGACTTGGGTTCTAACCTGTTGCTT (site CATTGGACTAA)	0.0957
AATTGGACTTGGGTTCTAACCTGTTGCTT (site GATTGGACTAA)	0.0807
AATTGGACTTGGGTTCTAACCTGTTGCTT (site TATTGGACTAA)	0.455
AATTGTCCTTGGGTTCTAACCTGTTGCGT (site AATTGTCCTAA)	0.0377
AATTGTCCTTGGGTTCTAACCTGTTGCGT (site AATTGTCCTAC)	1.17
AATTGTCCTTGGGTTCTAACCTGTTGCGT (site AATTGTCCTAG)	0.154
AATTGTCCTTGGGTTCTAACCTGTTGCGT (site AATTGTCCTAT)	0.0639
ACAAACCCTTGGGTTCTAACCTGTTGCTA (site ACAAACCCTTA)	0.672
ACAAACCCTTGGGTTCTAACCTGTTGCTA (site CTGGCAGCTAG)	0.85
ACAAATCCTTGGGTTCTAACCTGTTGCCT (site ACAAAACCTAG)	0.116
ACAAATCCTTGGGTTCTAACCTGTTGCCT (site ACAAACCCTAG)	0.292
ACAAATCCTTGGGTTCTAACCTGTTGCCT (site ACAAAGCCTAG)	0.0186
ACAAATCCTTGGGTTCTAACCTGTTGCCT (site ACAAATCCTAG)	0.591
ACAACGACTTGGGTTCTAACCTGTTGCCT (site ACAACCACTAG)	0.0471
ACAACGACTTGGGTTCTAACCTGTTGCCT (site ACAACGACTAG)	0.689
ACAAGGCCTTGGGTTCTAACCTGTTGCAT (site ACAAGGCCTAT)	1.38
ACAAGGCCTTGGGTTCTAACCTGTTGCAT (site TGCCCCTCTCG)	0.263
ACAAGGGCTTGGGTTCTAACCTGTTGCTG (site ACAAGGGCTCA)	2.06
ACAAGGGCTTGGGTTCTAACCTGTTGCTG (site GAGGCTACTAT)	0.531
ACAATATCTTGGGTTCTAACCTGTTGCCT (site ACAATATCTAG)	0.774

Sequence	recombinant barcode read abundance (log10)
ACAATATCTTGGGTTCTAACCTGTTGCCT (site ACATGATCTAG)	0.242
ACACATACTTGGGTTCTAACCTGTTGCCT (site ACACATACTAG)	0.302
ACACATACTTGGGTTCTAACCTGTTGCCT (site ACGCATACTAG)	0.104
ACACCCTCTTGGGTTCTAACCTGTTGCAG (site ACACCCTCTCT)	1.79
ACACCCTCTTGGGTTCTAACCTGTTGCAG (site GGTATAACTTG)	0.271
ACACCGTCTTGGGTTCTAACCTGTTGCCT (site ACACCGTCTAG)	2.12
ACACCGTCTTGGGTTCTAACCTGTTGCCT (site AGACCTTCTAG)	0
ACACGACCTTGGGTTCTAACCTGTTGCGG (site ACACGACCTCC)	2.48
ACACGACCTTGGGTTCTAACCTGTTGCGG (site ACAGGAGCTCC)	0
ACAGAGACTTGGGTTCTAACCTGTTGCAG (site ACAGAGACTCT)	1.35
ACAGAGACTTGGGTTCTAACCTGTTGCAG (site ACGTAGACTCT)	0.113
ACAGCTACTTGGGTTCTAACCTGTTGCCT (site ACAGCTACTAG)	1.84
ACAGCTACTTGGGTTCTAACCTGTTGCCT (site ACAGCTTCTAG)	0.33
ACAGCTACTTGGGTTCTAACCTGTTGCTT (site ACAGCTACTAA)	0.699
ACAGCTACTTGGGTTCTAACCTGTTGCTT (site GCAGCTACTCA)	0.0436
ACAGGGTCTTGGGTTCTAACCTGTTGCCT (site AAAGGGTCTAG)	0
ACAGGGTCTTGGGTTCTAACCTGTTGCCT (site ACAGGGTCTAG)	2.32
ACAGGGTCTTGGGTTCTAACCTGTTGCCT (site AGAGGGTCTAG)	0.193
ACAGGGTCTTGGGTTCTAACCTGTTGCCT (site ATAGGGTCTAG)	0.355
ACAGGTCCTTGGGTTCTAACCTGTTGCCG (site ACAGGTCCTCG)	2.34
